Results on 67 molecules are retold here after PubChem BioAssay AID449750 (Broad Institute, 2010).

The term AC50 denotes the midpoint of the concentration-response curve, whichever way the signal moves.

Calls of active or inactive are those of the source. No rule for the calls is given here. Where only a bound is given, the exact number is not on record here.

A short description of this assay: non-covalent RecA intein splicing inhibitors, dose response, biochemical, cell-free, fluorescence, secondary screen (AID 449750).
Regarding `COc1ccc(N2C(=O)CC(N(CCc3ccccc3)C(=O)/C=C/C(=O)O)C2=O)cc1` (configuration not stated), the AC50 is > 38 µM (inactive).

Turning to `Cc1cccc(NC2=C(Cl)C(=O)OC2OC(=O)c2ccco2)c1` (configuration not stated), the AC50 was > 38 µM (inactive).

With `CCN(CC)S(=O)(=O)c1cc(NC(=O)Cn2ncc(Cl)c(Cl)c2=O)ccc1C`, the AC50 was 38.7 µM.

Turning to `Cn1c(O)c(C2=NN(C(=O)CCl)C(c3ccccc3)C2)c(=O)n(C)c1=O` (configuration not stated), the AC50 is 26.2 µM.

As for `CC1=NN(Cc2ccccc2)C(=O)C1C(c1ccc(Cl)cc1)C(C#N)C#N` (configuration not stated), the AC50 was 31 µM.

As for `CCN1CCN(C(c2cccnc2)c2cc(Cl)c3cccnc3c2O)CC1` (configuration not stated), the AC50 was 16 µM.

Consider `CN(CC(=O)Nc1ccc(N2CCOCC2)cc1)CC(=O)Nc1cccc(C#N)c1`, for which the AC50 was > 38 µM (inactive).

For `Cn1c(=O)[nH]c(=O)c2c1nc([N+](=O)[O-])n2Cc1ccccc1`, the AC50 is > 38 µM (inactive).

Turning to `CCS(=O)(=O)C1=NN2C(=N)/C(=C\c3ccc(OC(=O)c4ccco4)cc3)C(=O)N=C2S1`, the AC50 was > 38 µM (inactive).

With `CCOC(=O)C1=C(c2ccccc2)O/C(=C(/C#N)C(F)(F)F)S1`, the AC50 is > 38 µM (inactive).

For `Cc1c(-c2nn(C)c(=O)c3ccccc23)oc2ccc(F)cc2c1=O`, the AC50 was 3 µM.

Regarding `Cc1ccc(S(=O)(=O)N(C(=O)c2ccncc2)c2ccc(OC(=O)c3ccncc3)c3ccccc23)c(C)c1`, the AC50 is 16.9 µM.

In the case of `Cc1cc2[nH]ncc2cc1NC(=S)NC(=O)c1ccccc1`, the AC50 was > 38 µM (inactive).

In the case of `Cc1cc(=O)n(CCCc2ccccc2)[nH]1`, the AC50 was 36.5 µM.

In the case of `O=c1[nH]c2ccc(Cl)cc2c(-c2ccccc2)c1SC(=S)N1CCCCC1`, the AC50 is > 38 µM (inactive).

`Nc1ccccc1S(=O)(=O)NC1=NCCCCC1`: the AC50 was > 38 µM (inactive).

For the molecule `COc1cc(C(c2c(C)[nH][nH]c2=O)c2c(C)[nH][nH]c2=O)cc(Br)c1OC`, the AC50 is 13.9 µM.

On to `CCCCC(O)(CCCC)C(=O)NN(C(=O)CCl)c1ccccc1`, for which the AC50 is 6.32 µM.

`Cc1[nH][nH]c(=O)c1C(c1cc2c(cc1Br)OCO2)c1c(C)[nH][nH]c1=O`: the AC50 was 20.2 µM.

Regarding `Cc1ccc(Sc2c(C)[nH]n(C(C)(C)C)c2=O)cc1`, the AC50 was > 38 µM (inactive).

Consider `COc1cccc(NC(=S)/C(=C(\[O-])c2ccc(OC(F)F)cc2)[n+]2ccccc2)c1`, for which the concentration at half-maximal activity (AC50) is 28.1 µM.

As to `O=C(O)CC1OCC=C2CN3CCC45C6=CC(=O)C(=O)C([N+](=O)[O-])=C6NC4C1C2CC35` (configuration not stated), the AC50 is 32.5 µM.

`c1ccc(C2[C@H]3CN(Cc4cccnc4)[C@H](c4ccccc4)C34CC2(c2cccnc2)C4)cc1` (some centres not stated): the AC50 is 10.7 µM.

Take `COC(=O)CC1=NN(c2nc(C)cc(C)n2)C(=O)C1`: the AC50 was > 38 µM (inactive).

Turning to `COc1ccccc1-n1nnnc1S(=O)(=O)Cc1ccc(Cl)cc1`, the AC50 is > 38 µM (inactive).

Consider `CCCc1[nH]nc2c1C(c1ccc(OC)c(CSC3=NCCS3)c1)C(C#N)=C(N)O2` (configuration not stated), for which the AC50 was 18.5 µM.

As to `O=C(c1ccc(Cl)cc1)n1cnc2ccccc21`, the AC50 was > 38 µM (inactive).

`O=c1c(Cl)c(Cl)cnn1Cc1ccccc1Cl`: the AC50 is 36.8 µM.

As to `[O-]C1=N/[N+](=C/c2ccc(Cl)c(Cl)c2)CC1`, the AC50 is > 38 µM (inactive).

On to `CCCSc1cc(NCCOC(=O)CCC)c([N+](=O)[O-])c2nonc12`, for which the AC50 was > 38 µM (inactive).

For the molecule `CCc1ccc(/C=C/C(=O)C2C(=O)c3ccccc3C2=O)cc1`, the AC50 is 7.06 µM.

For the molecule `Cc1nnc(N/N=C/c2cccc(OCc3ccc(Cl)c(Cl)c3)c2)n1N`, the AC50 was 23.4 µM.

Take `COC(=O)C(C#N)C(c1cccnc1)c1c(C)[nH][nH]c1=O` (configuration not stated): the AC50 was > 38 µM (inactive).

As to `N[C@@H]1CCCC[C@H]1N.O=C(O)C(=O)O.[Pt]`, the AC50 was > 38 µM (inactive).

With `c1ccc2[nH]c3cc4ncnc4cc3nc2c1`, the AC50 is 37.5 µM.

As for `CCN(Cc1ccccc1)S(=O)(=O)c1ccc(C(=O)N(CCCN(C)C)c2nc3cc(C)cc(C)c3s2)cc1`, the AC50 is 15.1 µM.

With `COc1ccc(/C=C2/C(=O)N(c3ccccc3)N=C2C)c(OC)c1`, the AC50 is 18.5 µM.

`O=C(CCl)NC(=O)NC12CC3CC(CC(C3)C1)C2`: the AC50 is 13.3 µM.

Turning to `CCOc1cc(C(c2c(C)[nH][nH]c2=O)c2c(C)[nH][nH]c2=O)cc(Br)c1OC`, the AC50 was 15.8 µM.

As for `CC1=NN(c2ccc(Cl)c(C(=O)O)c2)C(=O)/C1=C\c1ccc(-c2ccc(C(=O)O)cc2)o1`, the AC50 is 34.1 µM.

`Cn1c2ccccc2c2cc(C(=O)NNC(=O)CCl)sc21`: the AC50 is 16.2 µM.

Take `CC1=NN(c2ccc(C(=O)O)cc2)C(=O)/C1=C\c1ccc(OC(=O)c2cccs2)cc1`: the AC50 is 2.25 µM.

Regarding `Cc1ccc(C(=O)n2cnc3ccccc32)cc1C`, the AC50 was > 38 µM (inactive).

`O=C1COc2ccc(C(=O)CCl)cc2N1`: the AC50 is > 38 µM (inactive).

Consider `COc1cc(C2NC(=O)C(C#N)=C(Nc3cccc(C)c3)S2)ccc1O` (configuration not stated), for which the AC50 is 3.17 µM.

Regarding `Cc1cccc(CN2CCN(C(=O)CCl)CC2)c1`, the AC50 is 34.1 µM.

For `Cc1cc(N/N=C/c2ccc(O)c(C)c2O)nc(-c2ccccc2O)n1`, the AC50 is > 38 µM (inactive).

In the case of `COc1ccc(OC)c(C(c2c(C)[nH][nH]c2=O)c2c(C)[nH][nH]c2=O)c1`, the AC50 is 13.5 µM.

As for `Cc1[nH]n(-c2ccccc2)c(=O)c1C(c1cccc([N+](=O)[O-])c1)c1c(C)[nH]n(-c2ccccc2)c1=O`, the AC50 was 8.53 µM.

On to `Cc1c(C)n(O)c2ccc3nonc3c12`, for which the AC50 was 26.8 µM.

Turning to `Cc1[nH]nc2c1C1(CCOCC1)C(C#N)=C(N)O2`, the AC50 was > 38 µM (inactive).

In the case of `O=c1[nH]c(Nc2ccccc2)cc2ccccc12`, the AC50 is 1.68 µM.

On to `CC(=O)Oc1cc2c(cc1Cl)C1(CC(c3ccccc3Cl)O2)CC(C)(C)NC(=S)N1` (configuration not stated), for which the AC50 was 23.8 µM.

`COc1ccc(Br)cc1[C@H]1[C@H]2C=CC[C@@H](C)[C@@H]2C(=O)N1Cc1ccccc1`: the AC50 was 14.4 µM.

With `N#CCCN(C(=O)CCl)c1cccc(Cl)c1`, the AC50 is 38.9 µM.

For the molecule `O=C(CCl)N(c1ccccc1)c1ccccc1`, the AC50 was 5.75 µM.

In the case of `CCOC(=O)c1c(NC(=O)CCl)sc(CN(C)C)c1-c1ccccc1`, the AC50 was 20.4 µM.

`CN(C)C(=O)c1ccc2c(c1[N+](=O)[O-])C(=O)c1ccccc1C2=O`: the AC50 was > 12 µM (inactive).

Consider `COc1ccc(C(=O)N/N=C\c2coc3ccc(Cl)cc3c2=O)cc1`, for which the AC50 was > 38 µM (inactive).

As to `Oc1ccc(Nc2nc(-c3ccc4ccccc4c3)cs2)cc1`, the AC50 was > 38 µM (inactive).

Take `Cc1cc(=O)n(-c2ccc(O)cc2)[nH]1`: the AC50 is 7.46 µM.

`CC(=O)N(C1=C(N)C(=O)c2ccccc2C1=O)c1ccccc1`: the AC50 is 10.6 µM.

For the molecule `O=C1CCCC2=C1C1(O)C(=O)c3ccccc3C1(O)O2` (configuration not stated), the AC50 is 7.79 µM.

Consider `O=C1CC(c2cccnc2)=NN1c1ccccc1`, for which the AC50 is > 38 µM (inactive).

As for `O=c1cc(-c2ccc(Cl)cc2)[nH][nH]1`, the AC50 was 14.2 µM.

Consider `O=C(NC1=C(NC2CCS(=O)(=O)C2)C(=O)c2ccccc2C1=O)c1ccccc1` (configuration not stated), for which the AC50 is 1.17 µM.

Regarding `Cc1nn(-c2ccccc2)c(Cl)c1/C=C1\SC(=S)N(CCCCCC(=O)O)C1=O`, the AC50 was 14.8 µM.
